Assay results reported in patent EP4763839A1 (Pamplona Therapeutics (Shenzhen) Co., Ltd., priority 2023, dated 2025).
Structures can show the parent of a compound that is named as a salt. Where two headings read alike, the source gives them in different places.

Molecular target: T1, IRAK4 (Homo sapiens, UniProt Q9NWZ3)
T1 sequence (Q9NWZ3 1-460): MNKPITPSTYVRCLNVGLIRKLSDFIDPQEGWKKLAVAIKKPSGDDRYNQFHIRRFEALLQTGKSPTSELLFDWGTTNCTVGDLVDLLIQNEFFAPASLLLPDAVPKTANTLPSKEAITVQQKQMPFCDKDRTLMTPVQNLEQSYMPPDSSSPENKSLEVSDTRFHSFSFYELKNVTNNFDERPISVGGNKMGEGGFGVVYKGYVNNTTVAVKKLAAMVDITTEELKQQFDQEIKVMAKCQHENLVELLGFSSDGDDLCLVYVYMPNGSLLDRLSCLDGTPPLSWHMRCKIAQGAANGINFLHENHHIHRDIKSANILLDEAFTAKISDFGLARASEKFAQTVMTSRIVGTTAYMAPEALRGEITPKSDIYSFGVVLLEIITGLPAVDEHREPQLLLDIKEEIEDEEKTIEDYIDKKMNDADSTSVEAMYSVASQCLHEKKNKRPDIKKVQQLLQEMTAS
Assay: Degradation of IRAK4 in THP1 cells, Western blot
Assay type: cell-based
Parameters: Degradation of IRAK4 in THP1 by compound; host or cells: THP-1
Details: THP-1 cells, 24 hours of incubation; for DC50: IRAK4 protein by Western blot, read-out: DC50; for Dmax: maximum degradation rate
Outline: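 Degradation rate derived from densitometry of IRAK4 bands versus DMSO-treated controls. Read-out: anti-IRAK4 immunoblot (10% gel, 40 μg total protein per lane, BCA-normalised) of lysates from THP1 cells incubated with compound for 24 h.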

| Structure (SMILES) | DC50 | Dmax (read-out: Dmax) | Dmax |
| --- | --- | --- | --- |
| Cn1c(=O)n(C2CCC(=O)NC2=O)c2cccc(N3CCC(CN4CCN(c5ccc(-n6cc(NC(=O)c7cccc(-c8ccn[nH]8)n7)c(S(N)(=O)=O)n6)cc5)CC4)CC3)c21 (stereo not shown) [Compound A327, N-(1-(4-(4-((1-(1-(2,6-dioxopiperidin-3-yl)-3-methyl-2-oxo-2,3-dihydro-1H-benzo[d]imidazol-4-yl)piperidin-4-yl)methyl)piperazin-1-yl)phenyl)-3-sulfamoyl-1H-pyrazol-4-yl)-6-(1H-pyrazol-5-yl)picolinamide] | < 100 nM | > 60% | – |
| CC(C)(O)c1nn(-c2ccc(N3CCN(C4CCN(c5ccc(NC6CCC(=O)NC6=O)cc5F)CC4)CC3)cc2)cc1NC(=O)c1cncc(C#N)c1 (stereo not shown) [Compound A389, 5-Cyano-N-(1-(4-(4-(1-(4-((2,6-dioxopiperidin-3-yl)amino)-2-fluorophenyl)piperidin-4-yl)piperazin-1-yl)phenyl)-3-(2-hydroxypropan-2-yl)-1H-pyrazol-4-yl)nicotinamide] | > 1000 nM | < 40% | – |
| CN(c1ccc(N2CCC(CN3CCN(c4ccc(-n5cc(NC(=O)c6cccc(C(F)(F)F)n6)c(C(N)=O)n5)cc4)CC3)CC2)c(F)c1)C1CCC(=O)NC1=O (stereo not shown) [Compound A447, N-(3-Carbamoyl-1-(4-(4-((1-(4-((2,6-Dioxopiperidin-3-yl)(methyl)amino)-2-fluorophenyl)piperidin-4-yl)methyl)piperazin-1-yl)phenyl)-1H-pyrazol-4-yl)-6-(trifluoromethyl)picolinamide formate] | < 100 nM | > 60% | – |
| NS(=O)(=O)c1nn(-c2ccc(N3CCN(CC4CCN(c5ccc(NC6CCC(=O)NC6=O)cc5F)CC4)CC3)cc2)cc1NC(=O)c1cccc(-c2ccn[nH]2)n1 (stereo not shown) [Compound A325, N-(1-(4-(4-((1-(-4-((2,6-dioxopiperidin-3-yl)amino)-2-fluorophenyl)piperidin-4-yl)methyl)piperazin-1-yl)phenyl)-3-sulfamoyl-1H-pyrazol-4-yl)-6-(1H-pyrazol-5-yl)picolinamide] | < 100 nM | > 60% | – |
| Cn1c(=O)n(C2CCC(=O)NC2=O)c2cccc(N3CCC4(CCN(CCNC(=O)c5ccc(-n6cc(NC(=O)c7cccc(-c8ccn[nH]8)n7)c(S(N)(=O)=O)n6)cc5)C4)C3)c21 (stereo not shown) [Compound A341, N-(1-(4-((2-(7-(1-(2,6-Dioxopiperidin-3-yl)-3-methyl-2-oxo-2,3-dihydro-1H-benzo[d]imidazol-4-yl)-2,7-diazaspiro[4.4]nonan-2-yl)ethyl)carbamoyl)phenyl)-3-sulfamoyl-1H-pyrazol-4-yl)-6-(1H-pyrazol-5-yl)picolinamide formate] | < 100 nM | > 60% | – |
| CN(Cc1ccc(-n2cc(NC(=O)c3cccc(C(F)(F)F)n3)c(C(N)=O)n2)cc1)C1CC2(CCN(c3cccc4c3n(C)c(=O)n4C3CCC(=O)NC3)CC2)C1 (stereo not shown) [Compound A315] | 100 to 1000 nM | – | A (A represents Dmax > 60%) |
| CC(C)(O)c1nn(-c2ccc(N3CCN(C4CCN(c5ccc(C(=O)NC6CCC(=O)NC6=O)c(F)c5)CC4)CC3)cc2)cc1NC(=O)c1cccc(C(F)(F)F)n1 (stereo not shown) [Compound A442, N-(1-(4-(4-(1-(4-((2,6-dioxopiperidin-3-yl)carbamoyl)-3-fluorophenyl)piperidin-4-yl)piperazin-1-yl)phenyl)-3-(2-hydroxypropan-2-yl)-1H-pyrazol-4-yl)-6-(trifluoromethyl)picolinamide] | < 100 nM | > 60% | – |
| NC(=O)c1nn(-c2ccc(N3CCN(C4CCN(c5ccc(C(=O)NC6CCC(=O)NC6=O)cc5F)CC4)CC3)cc2)cc1NC(=O)c1cccc(C(F)(F)F)n1 (stereo not shown) [Compound A378, 1-(4-{4-[1-(4-{[(2,6-Dioxopiperidin-3-yl)amino]carbonyl}-2-fluorophenyl)piperidin-4-yl]piperazin-1-yl}phenyl)-4-({[6-(trifluoromethyl)pyridin-2-yl]carbonyl}amino)pyrazole-3-carboxamide] | < 100 nM | > 60% | – |
